{
  "source": "patent US9695155B2",
  "about": "“Herbicidal substituted pyrimidinyloxy benzene compounds” (E. I. DU PONT DE NEMOURS AND COMPANY, priority 2013, dated 2017)",
  "key": {"galium": {"system": "galium", "assay": "Test A postemergence", "format": "in vivo, Galium aparine", "settings": "0 to 100 scale where 0 is no effect and 100 is complete control", "in_short": "(§1)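 Injury scores run from 0, no effect, to 100, complete control, judged by eye against untreated plants roughly 10 days after treatment. Chemicals carried a surfactant in a non-phytotoxic solvent and went onto loam–sand soil preemergence or onto one- to two-leaf seedlings postemergence.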"}, "blackgrass [1]": {"system": "blackgrass", "assay": "Test C preemergence", "format": "in vivo, Alopecurus myosuroides", "settings": "Alopecurus myosuroides, pre-emergence", "in_short": "(§2)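 Visual injury score versus untreated controls, 0 = no effect, 100 = complete control, taken 13 to 15 days after treatment in the greenhouse. Pre-emergence pots held loam/sand; post-emergence plants grew in sphagnum peat/vermiculite mix and were sprayed at the 1- to 4-leaf stage.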"}, "ragweed [2]": {"system": "ragweed", "assay": "Test A preemergence", "format": "in vivo, Ambrosia elatior", "settings": "0 to 100 scale where 0 is no effect and 100 is complete control", "in_short": "as §1"}, "waterhemp": {"system": "waterhemp", "assay": "Test C preemergence", "format": "in vivo, Amaranthus rudis", "settings": "Amaranthus tuberculatus, pre-emergence, preemergence, read-out: Waterhemp plant response rating", "in_short": "as §2"}, "yellow nutsedge": {"system": "yellow nutsedge", "assay": "Test C preemergence", "format": "in vivo, Cyperus esculentus", "settings": "Cyperus, pre-emergence, preemergence, read-out: Nutsedge, Yellow plant response rating", "in_short": "as §2"}, "ragweed [3]": {"system": "ragweed", "assay": "Test C preemergence", "format": "in vivo, Ambrosia elatior", "settings": "Ambrosia artemisiifolia, pre-emergence, preemergence, read-out: Ragweed plant response rating", "in_short": "as §2"}, "wheat, winter": {"system": "wheat, winter", "assay": "Test C preemergence", "format": "in vivo, Triticum aestivum", "settings": "Triticum aestivum, pre-emergence, preemergence, read-out: Wheat plant response rating", "in_short": "as §2"}, "pigweed": {"system": "pigweed", "assay": "Test C preemergence", "format": "in vivo, Amaranthus retroflexus", "settings": "Amaranthus retroflexus, pre-emergence, preemergence, read-out: Pigweed plant response rating", "in_short": "as §2"}, "kochia": {"system": "kochia", "assay": "Test A postemergence", "format": "in vivo, Kochia scoparia", "settings": "0 to 100 scale where 0 is no effect and 100 is complete control", "in_short": "as §1"}, "ragweed [4]": {"system": "ragweed", "assay": "Test A postemergence", "format": "in vivo, Ambrosia elatior", "settings": "0 to 100 scale where 0 is no effect and 100 is complete control", "in_short": "as §1"}, "barnyardgrass": {"system": "barnyardgrass", "assay": "Test C preemergence", "format": "in vivo, Echinochloa crus-galli", "settings": "Echinochloa crus-galli, pre-emergence", "in_short": "as §2"}, "blackgrass [5]": {"system": "blackgrass", "assay": "Test A postemergence", "format": "in vivo, Alopecurus myosuroides", "settings": "0 to 100 scale where 0 is no effect and 100 is complete control", "in_short": "as §1"}, "lambsquarters": {"system": "lambsquarters", "assay": "Test C preemergence", "format": "in vivo, Chenopodium album", "settings": "Chenopodium album, pre-emergence, preemergence, read-out: Lambsquarters plant response rating", "in_short": "as §2"}, "large (Lg) crabgrass": {"system": "large (Lg) crabgrass", "assay": "Test C preemergence", "format": "in vivo, Digitaria sanguinalis", "settings": "Digitaria sanguinalis, pre-emergence", "in_short": "as §2"}, "giant foxtail": {"system": "giant foxtail", "assay": "Test C preemergence", "format": "in vivo, Setaria faberii", "settings": "Setaria faberi, pre-emergence", "in_short": "as §2"}, "soybean": {"system": "soybean", "assay": "Test C preemergence", "format": "in vivo, Glycine max", "settings": "Glycine max, pre-emergence, preemergence, read-out: Soybean plant response rating", "in_short": "as §2"}, "velvetleaf": {"system": "velvetleaf", "assay": "Test C preemergence", "format": "in vivo, Abutilon theophrasti", "settings": "Abutilon theophrasti, pre-emergence, preemergence, read-out: Velvetleaf plant response rating", "in_short": "as §2"}, "oilseed rape": {"system": "oilseed rape", "assay": "Test C preemergence", "format": "in vivo, Brassica napus", "settings": "Brassica napus, pre-emergence, preemergence, read-out: Oilseed Rape plant response rating", "in_short": "as §2"}, "[6]": {"settings": "16 g ai/ha, scale 0 to 100 (0 no effect, 100 complete control)"}, "[7]": {"settings": "62 g ai/ha, scale 0 (no effect) to 100 (complete control)"}, "[8]": {"settings": "125 g ai/ha, scale 0 (no effect) to 100 (complete control)"}},
  "data": [
    {"smiles": "FC(F)c1cn(-c2ccccc2Oc2ncc(Cl)cn2)nn1", "note": "[Compound 147, 5-chloro-2-[2-[4-(difluoromethyl)-1H-1,2,3-triazol-1-yl]phenoxy]pyrimidine]", "values": [
      {"measurement": "Galium plant response rating", "setting": "galium; 125 g ai/ha", "result": 100},
      {"measurement": "Plant response rating, Galium", "setting": "galium; 500 g ai/ha", "result": 100},
      {"measurement": "pest or weed control at 16 g/ha", "setting": "blackgrass [1]; 16 g ai/ha, preemergence, scale 0 to 100 (0 no effect, 100 complete control), read-out: Blackgrass plant response rating", "result": 0, "unit": "%"},
      {"measurement": "pest or weed control at 62 g/ha", "setting": "blackgrass [1]; 62 g ai/ha, preemergence, scale 0 (no effect) to 100 (complete control), read-out: Blackgrass plant response rating", "result": 50, "unit": "%"},
      {"measurement": "pest or weed control at 125 g/ha", "setting": "blackgrass [1]; 125 g ai/ha, preemergence, scale 0 (no effect) to 100 (complete control), read-out: Blackgrass plant response rating", "result": 90, "unit": "%"},
      {"measurement": "pest or weed control at 31 g/ha", "setting": "blackgrass [1]; Preemergence, 31 g ai/ha, scale 0 to 100, 0 no effect, 100 complete control, read-out: Plant response rating, Blackgrass", "result": 40, "unit": "%"},
      {"measurement": "Plant response rating, Ragweed", "setting": "ragweed [2]; 125 g ai/ha", "result": 90},
      {"measurement": "Ragweed plant response rating", "setting": "ragweed [2]; 500 g ai/ha", "result": 100},
      {"measurement": "pest or weed control at 16 g/ha", "setting": "waterhemp; [6]", "result": 100, "unit": "%"},
      {"measurement": "pest or weed control at 62 g/ha", "setting": "waterhemp; [7]", "result": 100, "unit": "%"},
      {"measurement": "pest or weed control at 125 g/ha", "setting": "waterhemp; [8]", "result": 100, "unit": "%"},
      {"measurement": "pest or weed control at 16 g/ha", "setting": "yellow nutsedge; [6]", "result": 0, "unit": "%"},
      {"measurement": "pest or weed control at 62 g/ha", "setting": "yellow nutsedge; [7]", "result": 15, "unit": "%"},
      {"measurement": "pest or weed control at 125 g/ha", "setting": "yellow nutsedge; [8]", "result": 55, "unit": "%"},
      {"measurement": "pest or weed control at 16 g/ha", "setting": "ragweed [3]; [6]", "result": 75, "unit": "%"},
      {"measurement": "pest or weed control at 62 g/ha", "setting": "ragweed [3]; [7]", "result": 98, "unit": "%"},
      {"measurement": "pest or weed control at 125 g/ha", "setting": "ragweed [3]; [8]", "result": 100, "unit": "%"},
      {"measurement": "plant injury at 16 g/ha", "setting": "wheat, winter; [6]", "result": 0, "unit": "%"},
      {"measurement": "plant injury at 62 g/ha", "setting": "wheat, winter; [7]", "result": 0, "unit": "%"},
      {"measurement": "plant injury at 125 g/ha", "setting": "wheat, winter; [8]", "result": 25, "unit": "%"},
      {"measurement": "pest or weed control at 16 g/ha", "setting": "pigweed; [6]", "result": 100, "unit": "%"},
      {"measurement": "pest or weed control at 62 g/ha", "setting": "pigweed; [7]", "result": 100, "unit": "%"},
      {"measurement": "pest or weed control at 125 g/ha", "setting": "pigweed; [8]", "result": 100, "unit": "%"},
      {"measurement": "Kochia plant response rating", "setting": "kochia; 125 g ai/ha", "result": 100},
      {"measurement": "Plant response rating, Kochia", "setting": "kochia; 500 g ai/ha", "result": 100},
      {"measurement": "Ragweed plant response rating", "setting": "ragweed [4]; 125 g ai/ha", "result": 100},
      {"measurement": "Plant response rating, Ragweed", "setting": "ragweed [4]; 500 g ai/ha", "result": 100},
      {"measurement": "pest or weed control at 16 g/ha", "setting": "barnyardgrass; 16 g ai/ha, preemergence, scale 0 to 100 (0 no effect, 100 complete control), read-out: Barnyardgrass plant response rating", "result": 10, "unit": "%"},
      {"measurement": "pest or weed control at 62 g/ha", "setting": "barnyardgrass; 62 g ai/ha, preemergence, scale 0 (no effect) to 100 (complete control), read-out: Barnyardgrass plant response rating", "result": 90, "unit": "%"},
      {"measurement": "pest or weed control at 125 g/ha", "setting": "barnyardgrass; 125 g ai/ha, preemergence, scale 0 (no effect) to 100 (complete control), read-out: Barnyardgrass plant response rating", "result": 100, "unit": "%"},
      {"measurement": "pest or weed control at 31 g/ha", "setting": "barnyardgrass; Preemergence, 31 g ai/ha, scale 0 to 100, 0 no effect, 100 complete control, read-out: Plant response rating, Barnyardgrass", "result": 80, "unit": "%"},
      {"measurement": "Blackgrass plant response rating", "setting": "blackgrass [5]; 125 g ai/ha", "result": 100},
      {"measurement": "Plant response rating, Blackgrass", "setting": "blackgrass [5]; 500 g ai/ha", "result": 100},
      {"measurement": "pest or weed control at 16 g/ha", "setting": "lambsquarters; [6]", "result": 100, "unit": "%"},
      {"measurement": "pest or weed control at 62 g/ha", "setting": "lambsquarters; [7]", "result": 100, "unit": "%"},
      {"measurement": "pest or weed control at 125 g/ha", "setting": "lambsquarters; [8]", "result": 100, "unit": "%"},
      {"measurement": "pest or weed control at 16 g/ha", "setting": "large (Lg) crabgrass; 16 g ai/ha, preemergence, scale 0 to 100 (0 no effect, 100 complete control), read-out: Crabgrass, Large plant response rating", "result": 98, "unit": "%"},
      {"measurement": "pest or weed control at 62 g/ha", "setting": "large (Lg) crabgrass; 62 g ai/ha, preemergence, scale 0 (no effect) to 100 (complete control), read-out: Crabgrass, Large plant response rating", "result": 100, "unit": "%"},
      {"measurement": "pest or weed control at 125 g/ha", "setting": "large (Lg) crabgrass; 125 g ai/ha, preemergence, scale 0 (no effect) to 100 (complete control), read-out: Crabgrass, Large plant response rating", "result": 100, "unit": "%"},
      {"measurement": "pest or weed control at 31 g/ha", "setting": "large (Lg) crabgrass; Preemergence, 31 g ai/ha, scale 0 to 100, 0 no effect, 100 complete control, read-out: Plant response rating, Crabgrass, Large", "result": 100, "unit": "%"},
      {"measurement": "pest or weed control at 16 g/ha", "setting": "giant foxtail; 16 g ai/ha, preemergence, scale 0 to 100 (0 no effect, 100 complete control), read-out: Foxtail, Giant plant response rating", "result": 70, "unit": "%"},
      {"measurement": "pest or weed control at 62 g/ha", "setting": "giant foxtail; 62 g ai/ha, preemergence, scale 0 (no effect) to 100 (complete control), read-out: Foxtail, Giant plant response rating", "result": 100, "unit": "%"},
      {"measurement": "pest or weed control at 125 g/ha", "setting": "giant foxtail; 125 g ai/ha, preemergence, scale 0 (no effect) to 100 (complete control), read-out: Foxtail, Giant plant response rating", "result": 100, "unit": "%"},
      {"measurement": "pest or weed control at 31 g/ha", "setting": "giant foxtail; Preemergence, 31 g ai/ha, scale 0 to 100, 0 no effect, 100 complete control, read-out: Plant response rating, Foxtail, Giant", "result": 100, "unit": "%"},
      {"measurement": "plant injury at 16 g/ha", "setting": "soybean; [6]", "result": 85, "unit": "%"},
      {"measurement": "plant injury at 62 g/ha", "setting": "soybean; [7]", "result": 95, "unit": "%"},
      {"measurement": "plant injury at 125 g/ha", "setting": "soybean; [8]", "result": 95, "unit": "%"},
      {"measurement": "pest or weed control at 16 g/ha", "setting": "velvetleaf; [6]", "result": 100, "unit": "%"},
      {"measurement": "pest or weed control at 62 g/ha", "setting": "velvetleaf; [7]", "result": 100, "unit": "%"},
      {"measurement": "pest or weed control at 125 g/ha", "setting": "velvetleaf; [8]", "result": 100, "unit": "%"},
      {"measurement": "plant injury at 16 g/ha", "setting": "oilseed rape; [6]", "result": 100, "unit": "%"},
      {"measurement": "plant injury at 62 g/ha", "setting": "oilseed rape; [7]", "result": 100, "unit": "%"},
      {"measurement": "plant injury at 125 g/ha", "setting": "oilseed rape; [8]", "result": 100, "unit": "%"}
    ]}
  ]
}
